Measured values taken from US8710045B2, “Agents for preventing and treating disorders involving modulation of the ryanodine receptors” (The Trustees of Columbia University in the City of New York, priority 2004, dated 2014).
Where “and” joins values, the source holds several entries; their conditions need not be identical. Identical values can stand only once.

What was measured:
[1] = biological target: hERG current (Homo sapiens, UniProt Q12809); assay: hERG current, PatchXpress 7000A automatic parallel patch clamp in hERG-transfected HEK 293 cells (Example 6); conditions: for Individual Data (% Inhibition): single cell
Protocol: HEK293 cells were transfected with a plasmid containing the hERG cDNA and a neomycin resistance gene. Stable transfectants were selected by culturing the cells in the presence of G418. The selection pressure was maintained by continued culture in the presence of G418. […] Cells for use in electrophysiology were cultured in 35 mm dishes.
Onset and steady state block of hERG current was measured using a pulse pattern with fixed amplitudes (conditioning prepulse: +20 mV for 2 seconds; test pulse: −50 mV for 2 seconds) repeated at 10 second intervals, from a holding potential of −80 mV. Peak tail current was measured during the 2 second step to −50 mV. A steady state was maintained for at least 30 seconds before applying the test compound or the positive control. Peak tail current was monitored until a new steady state was achieved. Test compound concentrations were applied cumulatively in ascending order without washout between applications.
Data acquisition and analysis was performed using the suite of pCLAMP (Vre. 8.2) programs (Axon Instruments, Union City, Calif.). Steady state was defined by the limiting constant rate of change with time (linear time dependence). The steady state before and after application of the test or control compounds was used to calculate the percentage of current inhibited at each concentration. […] Nonlinear squares fits were solved with the Solver add-in for Excel 2000 (Microsoft, Redmond, Wash.).
Multiple compounds of the invention were tested for their effects on hERG currents. The compounds tested were: ARM036-Na, ARM047, ARM048, ARM050, ARM057, ARM064, ARM074, ARM075, ARM076, ARM077, ARM101, ARM102, ARM103, ARM104, ARM106, ARM107 and ARM26. […] Electrophysiological recordings were made using the PatchXpress 7000 A (Molecular Devices) automatic parallel patch clamp system. […] The duration of exposure to each test concentration was 5 minutes.

[2] = biological target: T1, PKA-phosphorylated RyR2 (Homo sapiens, UniProt Q92736); assay: FKBP12.6 rebinding assay: FKBP12.6 binding to PKA-phosphorylated RyR2 in cardiac SR; conditions: compound 0.5-1000 nM; Michaelis-Menten curve fitting
T1 construct: from tissue
Protocol: Samples are centrifuged at 95,000 g for 10 min and the pellets are washed three times in 0.2 ml imidazole buffer. The final pellets are pooled and resuspended in imidazole buffer (final concentration≈10 μg/μl). […] Samples then are centrifuged at 100,000 g for 10 minutes and pellets washed 3 times with imidizol buffer. […] Immunoblots are developed using an anti-FKBP antibody (1:3,000 dilution). […] The intracellular solution contains (in mM): CsCl, 60; CaCl2, 1; EGTA, 11; MgCl2, 1; K2ATP, 5; HEPES, 10; aspartic acid, 50; pH 7.4 (CsOH). Under these conditions, it is expected that the measured current was carried by Ba^2+ primarily through L-type calcium channels which is referred to as ICa,L. Drugs are applied by a local solution changer and reach the cell membrane within 1 s.
The FKBP12.6 rebinding assay described above is used to determine the amount of FKBP12.6 binding to PKA-phosphorylated RyR2 at various concentrations (0.5-1000 nM) of the compounds shown. EC50 values are calculated using Michaelis-Menten curve fitting.
The EC50 values are calculated using Michaelis-Menten curve fitting.

T1 sequence (Q92736 whole entry): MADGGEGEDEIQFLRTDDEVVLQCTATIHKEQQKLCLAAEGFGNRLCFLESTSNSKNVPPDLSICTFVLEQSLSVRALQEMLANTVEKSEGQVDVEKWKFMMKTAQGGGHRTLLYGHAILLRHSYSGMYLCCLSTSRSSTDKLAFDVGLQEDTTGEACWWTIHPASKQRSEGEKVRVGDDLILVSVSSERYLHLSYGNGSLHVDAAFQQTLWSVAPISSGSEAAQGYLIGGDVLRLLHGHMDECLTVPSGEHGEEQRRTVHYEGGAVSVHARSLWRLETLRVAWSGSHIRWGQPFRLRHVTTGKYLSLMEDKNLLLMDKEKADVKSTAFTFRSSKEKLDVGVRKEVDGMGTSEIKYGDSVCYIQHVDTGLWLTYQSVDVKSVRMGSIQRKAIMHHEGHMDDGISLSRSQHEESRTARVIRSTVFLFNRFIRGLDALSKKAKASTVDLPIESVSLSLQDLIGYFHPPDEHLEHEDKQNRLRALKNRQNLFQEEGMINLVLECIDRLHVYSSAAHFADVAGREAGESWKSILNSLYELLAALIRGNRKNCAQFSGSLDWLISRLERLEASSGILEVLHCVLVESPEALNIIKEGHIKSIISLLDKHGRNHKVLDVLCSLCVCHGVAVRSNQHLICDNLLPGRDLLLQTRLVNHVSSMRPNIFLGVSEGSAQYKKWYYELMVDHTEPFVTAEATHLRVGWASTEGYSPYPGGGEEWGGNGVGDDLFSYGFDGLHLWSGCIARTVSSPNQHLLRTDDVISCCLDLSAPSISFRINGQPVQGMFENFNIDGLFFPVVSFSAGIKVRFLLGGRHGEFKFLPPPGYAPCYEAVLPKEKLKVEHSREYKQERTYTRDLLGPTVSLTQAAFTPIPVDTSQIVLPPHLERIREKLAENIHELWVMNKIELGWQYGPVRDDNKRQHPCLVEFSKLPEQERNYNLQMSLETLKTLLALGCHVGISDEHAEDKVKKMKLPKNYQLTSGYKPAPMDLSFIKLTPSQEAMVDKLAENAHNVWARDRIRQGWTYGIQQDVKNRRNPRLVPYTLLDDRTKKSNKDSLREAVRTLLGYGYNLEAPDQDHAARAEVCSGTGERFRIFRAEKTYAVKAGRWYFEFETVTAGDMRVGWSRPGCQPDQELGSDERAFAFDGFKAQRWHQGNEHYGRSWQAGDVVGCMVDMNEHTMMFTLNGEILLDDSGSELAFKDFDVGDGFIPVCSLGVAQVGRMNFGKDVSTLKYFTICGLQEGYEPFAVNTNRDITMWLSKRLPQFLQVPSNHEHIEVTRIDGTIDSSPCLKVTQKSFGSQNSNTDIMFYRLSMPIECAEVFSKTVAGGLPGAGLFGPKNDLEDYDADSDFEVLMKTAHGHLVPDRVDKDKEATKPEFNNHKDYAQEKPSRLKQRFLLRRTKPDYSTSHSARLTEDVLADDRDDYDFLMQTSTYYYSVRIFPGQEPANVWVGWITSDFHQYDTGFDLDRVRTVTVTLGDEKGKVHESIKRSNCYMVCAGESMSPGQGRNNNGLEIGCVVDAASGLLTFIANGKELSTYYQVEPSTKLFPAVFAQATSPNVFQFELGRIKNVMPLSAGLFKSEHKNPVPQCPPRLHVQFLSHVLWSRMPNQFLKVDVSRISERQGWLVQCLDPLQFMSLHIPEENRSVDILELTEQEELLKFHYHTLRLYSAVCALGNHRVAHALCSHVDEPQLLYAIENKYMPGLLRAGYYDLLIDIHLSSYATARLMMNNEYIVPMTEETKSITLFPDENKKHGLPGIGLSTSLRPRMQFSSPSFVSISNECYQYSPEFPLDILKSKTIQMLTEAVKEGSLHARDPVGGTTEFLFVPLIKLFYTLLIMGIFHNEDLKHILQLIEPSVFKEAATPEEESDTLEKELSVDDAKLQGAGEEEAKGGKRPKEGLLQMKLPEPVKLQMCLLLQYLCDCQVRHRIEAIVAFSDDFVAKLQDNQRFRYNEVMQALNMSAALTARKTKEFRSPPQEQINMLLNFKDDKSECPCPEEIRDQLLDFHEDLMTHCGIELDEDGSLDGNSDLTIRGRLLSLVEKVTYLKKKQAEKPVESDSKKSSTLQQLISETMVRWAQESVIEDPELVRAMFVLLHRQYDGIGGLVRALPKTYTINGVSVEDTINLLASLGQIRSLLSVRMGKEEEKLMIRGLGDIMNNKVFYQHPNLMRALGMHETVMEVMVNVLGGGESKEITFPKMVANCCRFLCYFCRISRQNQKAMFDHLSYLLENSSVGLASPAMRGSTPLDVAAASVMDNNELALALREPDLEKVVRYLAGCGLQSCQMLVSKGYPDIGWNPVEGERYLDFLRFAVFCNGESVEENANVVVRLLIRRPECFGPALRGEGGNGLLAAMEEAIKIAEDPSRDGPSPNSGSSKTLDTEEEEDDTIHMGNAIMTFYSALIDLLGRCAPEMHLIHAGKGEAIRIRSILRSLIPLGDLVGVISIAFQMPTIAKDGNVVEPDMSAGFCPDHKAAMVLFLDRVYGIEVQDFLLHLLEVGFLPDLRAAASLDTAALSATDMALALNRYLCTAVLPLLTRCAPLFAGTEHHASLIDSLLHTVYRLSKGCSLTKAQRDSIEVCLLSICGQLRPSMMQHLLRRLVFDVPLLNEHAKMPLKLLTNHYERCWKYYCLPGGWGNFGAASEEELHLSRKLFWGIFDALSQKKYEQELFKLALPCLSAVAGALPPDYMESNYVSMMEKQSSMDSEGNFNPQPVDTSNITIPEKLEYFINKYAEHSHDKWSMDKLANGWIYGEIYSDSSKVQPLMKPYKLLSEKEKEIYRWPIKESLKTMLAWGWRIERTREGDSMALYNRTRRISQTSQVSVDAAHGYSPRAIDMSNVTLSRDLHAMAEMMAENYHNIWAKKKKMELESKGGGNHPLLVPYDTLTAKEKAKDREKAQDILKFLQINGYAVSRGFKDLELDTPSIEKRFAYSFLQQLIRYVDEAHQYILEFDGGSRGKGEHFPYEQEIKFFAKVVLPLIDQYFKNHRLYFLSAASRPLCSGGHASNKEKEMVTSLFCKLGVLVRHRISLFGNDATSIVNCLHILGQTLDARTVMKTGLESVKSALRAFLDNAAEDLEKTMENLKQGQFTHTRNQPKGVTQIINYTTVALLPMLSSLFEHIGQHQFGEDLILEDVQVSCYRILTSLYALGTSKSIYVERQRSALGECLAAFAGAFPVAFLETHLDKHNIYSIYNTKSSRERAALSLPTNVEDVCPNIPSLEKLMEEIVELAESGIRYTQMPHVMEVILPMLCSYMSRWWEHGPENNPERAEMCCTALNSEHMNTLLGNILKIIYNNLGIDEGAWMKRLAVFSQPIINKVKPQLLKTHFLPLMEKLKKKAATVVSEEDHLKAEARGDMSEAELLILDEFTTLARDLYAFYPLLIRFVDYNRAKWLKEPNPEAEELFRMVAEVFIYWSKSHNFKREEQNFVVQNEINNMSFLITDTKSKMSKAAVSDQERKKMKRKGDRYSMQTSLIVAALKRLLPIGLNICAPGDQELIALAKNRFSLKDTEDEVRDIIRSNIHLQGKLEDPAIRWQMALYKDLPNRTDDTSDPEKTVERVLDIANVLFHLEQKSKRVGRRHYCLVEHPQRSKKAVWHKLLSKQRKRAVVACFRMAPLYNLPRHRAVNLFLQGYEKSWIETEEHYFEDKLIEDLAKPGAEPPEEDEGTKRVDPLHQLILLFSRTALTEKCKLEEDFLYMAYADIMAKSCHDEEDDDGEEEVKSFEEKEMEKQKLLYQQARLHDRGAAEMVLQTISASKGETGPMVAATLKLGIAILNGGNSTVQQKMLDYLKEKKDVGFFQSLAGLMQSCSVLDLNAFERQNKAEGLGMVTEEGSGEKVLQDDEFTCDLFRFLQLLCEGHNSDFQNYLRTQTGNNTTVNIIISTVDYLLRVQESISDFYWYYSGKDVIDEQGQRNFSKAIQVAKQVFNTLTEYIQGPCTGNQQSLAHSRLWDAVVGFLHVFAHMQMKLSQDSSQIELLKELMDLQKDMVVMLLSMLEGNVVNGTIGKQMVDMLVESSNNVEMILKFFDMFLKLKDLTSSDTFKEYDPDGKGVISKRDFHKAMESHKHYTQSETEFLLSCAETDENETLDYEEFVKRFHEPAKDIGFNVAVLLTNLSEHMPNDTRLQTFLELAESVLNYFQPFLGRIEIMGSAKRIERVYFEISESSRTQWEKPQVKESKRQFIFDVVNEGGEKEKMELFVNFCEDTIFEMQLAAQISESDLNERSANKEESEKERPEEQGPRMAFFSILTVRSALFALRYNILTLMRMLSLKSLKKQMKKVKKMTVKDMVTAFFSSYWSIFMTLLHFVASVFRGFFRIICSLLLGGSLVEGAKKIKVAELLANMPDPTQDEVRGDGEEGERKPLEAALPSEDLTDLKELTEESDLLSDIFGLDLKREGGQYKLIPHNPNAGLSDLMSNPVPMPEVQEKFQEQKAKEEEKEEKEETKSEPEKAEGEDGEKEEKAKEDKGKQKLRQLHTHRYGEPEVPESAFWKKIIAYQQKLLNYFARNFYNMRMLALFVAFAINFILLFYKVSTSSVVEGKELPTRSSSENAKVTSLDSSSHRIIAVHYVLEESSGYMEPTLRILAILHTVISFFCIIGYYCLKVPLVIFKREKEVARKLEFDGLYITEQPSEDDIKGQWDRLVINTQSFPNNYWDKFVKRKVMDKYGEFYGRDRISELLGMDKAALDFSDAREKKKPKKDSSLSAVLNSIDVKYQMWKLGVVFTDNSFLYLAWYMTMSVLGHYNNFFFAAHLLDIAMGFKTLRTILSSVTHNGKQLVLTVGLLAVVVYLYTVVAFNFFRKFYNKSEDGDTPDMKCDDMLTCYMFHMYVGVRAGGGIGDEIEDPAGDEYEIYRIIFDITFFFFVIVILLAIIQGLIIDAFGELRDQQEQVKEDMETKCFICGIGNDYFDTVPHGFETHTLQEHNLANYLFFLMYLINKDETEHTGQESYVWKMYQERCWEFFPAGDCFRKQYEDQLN
T1 sequence (P68106 whole entry partner): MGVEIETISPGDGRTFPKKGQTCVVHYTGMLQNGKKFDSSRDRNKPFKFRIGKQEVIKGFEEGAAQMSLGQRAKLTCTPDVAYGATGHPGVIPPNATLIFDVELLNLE

SMILES	EC50 [2] [nM]	other results
COc1ccc2c(c1)CN(C(=O)C(=O)[O-])CCS2.[Na+] [ARM036-Na]	–	Mean % hERG Inhibition ([1]; 0.01 μM): 0.2%; Individual Data (% Inhibition) ([1]; 0.01 μM): 0.0% and 0.3%; Mean % hERG Inhibition ([1]; 0.1 μM): 5.0%; Individual Data (% Inhibition) ([1]; 0.1 μM): 10.0% and 0.0%; Mean % hERG Inhibition ([1]; 1 μM): 5.5%; Individual Data (% Inhibition) ([1]; 1 μM): 2.4% and 8.6%; Mean % hERG Inhibition ([1]; 10 μM): 6.7%; Individual Data (% Inhibition) ([1]; 10 μM): 5.1% and 8.2%; hERG current inhibition at the highest concentration tested ([1]; highest concentration tested (10 μM)): less than 50%
COc1ccc2c(c1)CN(S(=O)(=O)CCN1CCC(Cc3ccccc3)CC1)CCS2 [S1]	150	–
CCCCN(CCCC)CCS(=O)(=O)N1CCSc2ccc(OC)cc2C1 [S2]	211	–
COc1ccc2c(c1)CN(S(C)(=O)=O)CCS2 [S4]	102	–
COc1ccc2c(c1)CN(S(=O)(=O)c1ccc(C)cc1)CCS2 [S5]	208	–
COc1ccc2c(c1)CN(C(=O)N1CCC(Cc3ccccc3)CC1)CCS2 [S6]	252	–
COc1ccc2c(c1)CN(C(=O)CI)CCS2 [S7]	55	–
COc1ccc2c(c1)CN(C(=O)c1ccccc1)CCS2 [S9]	205	–
COc1ccc2c(c1)CN(C(=O)Nc1ccccc1)CCS2 [S11]	181	–
COc1ccc2c(c1)CN(C(=S)Nc1ccccc1)CCS2 [S12]	197	–
COc1ccc2c(c1)CN(C(=O)CCC(=O)N1CCSc3ccc(OC)cc3C1)CCS2 [S19]	265	–
COc1ccc2c(c1)CN(C(=O)c1cccc(C(=O)N3CCSc4ccc(OC)cc4C3)n1)CCS2 [S22]	355	–
COc1ccc2c(c1)CN(C(=O)CCN1CCC(Cc3ccccc3)CC1)CCS2(=O)=O [S23]	268	–
COc1ccc2c(c1)C(=O)NCCS2 [S25]	40	–
C=CC(=O)N1CCSc2ccc(OC)cc2C1 [S27]	~50	–
COc1ccc2c(c1)CN(C(=O)CC(=O)O)CCS2 [S38]	44	–
COc1ccc2c(c1)CN(C(=O)c1ccc(N=[N+]=[N-])cc1O)CCS2 [S40]	100	–
COc1ccc2c(c1)CN(C(=O)C(=O)NCCSSCCNC(=O)c1ccc(N=[N+]=[N-])cc1[N+](=O)[O-])CCS2 [S43]	80	–
COc1ccc2c(c1)CN(C(=O)C(=O)NCCSSCCNC(=O)C(=O)N1CCSc3ccc(OC)cc3C1)CCS2 [S44]	121	–
COc1ccc2c(c1)CN(C(=O)C(=O)NCCSSCCNC(=O)c1ccc(N=[N+]=[N-])cc1O)CCS2 [S45]	80	–
COc1ccc2c(c1)CN(C(N)=O)CCS2 [S46]	150	–
